Laboratory results as given in patent US11447445B2, “Diabetes and metabolic syndrome treatment with a novel dual modulator of soluble epoxide hydrolase and peroxisome proliferator-activated receptors” (priority 2015, dated 2022).
Converted amounts (≈) assume the structure as drawn.

Experiments:
recombinant human sEH = target: T1, recombinant human sEH (Homo sapiens, UniProt P34913); assay: biochemical; conditions: read-out: IC50 sEH (converted)
T1 sequence (P34913 1-555): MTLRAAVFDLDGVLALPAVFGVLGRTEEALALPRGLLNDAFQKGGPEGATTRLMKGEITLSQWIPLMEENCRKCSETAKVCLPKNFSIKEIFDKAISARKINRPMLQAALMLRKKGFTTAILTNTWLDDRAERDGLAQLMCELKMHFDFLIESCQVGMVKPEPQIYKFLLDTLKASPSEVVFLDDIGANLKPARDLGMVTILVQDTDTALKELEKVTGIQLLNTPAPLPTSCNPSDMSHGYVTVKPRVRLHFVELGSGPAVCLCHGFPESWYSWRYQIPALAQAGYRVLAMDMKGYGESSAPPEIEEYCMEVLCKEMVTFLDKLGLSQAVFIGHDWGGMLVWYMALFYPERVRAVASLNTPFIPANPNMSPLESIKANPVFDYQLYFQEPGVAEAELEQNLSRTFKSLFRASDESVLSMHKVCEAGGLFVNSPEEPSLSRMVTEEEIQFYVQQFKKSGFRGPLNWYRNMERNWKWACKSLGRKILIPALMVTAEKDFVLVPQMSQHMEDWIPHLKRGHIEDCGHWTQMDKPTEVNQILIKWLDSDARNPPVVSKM

PPARα = target: T2, PPARα (Homo sapiens, UniProt Q07869); assay type: cell-based
T2 construct: expressed in transfected cells; host or cells: COS-7

PPARδ = target: T3, PPARδ (Homo sapiens, UniProt Q03181); assay: PPAR transactivation assay in COS-7 cells (Gal4-hPPAR-LBD, luciferase); assay type: cell-based; conditions: i.a. = inactive
T3 construct: expressed in transfected cells; host or cells: COS-7

[1] = Water solubility approximation; assay type: physicochemical; conditions: aqueous with cosolvent or surfactant or cyclodextrin, kinetic from dmso stock; PBS pH 7.4, 0.01% Polysorbate 20, 1% DMSO; precipitation at 650 nm; read-out: w.s. (water solubility)
Method: PBS at pH 7.4 with 0.01% Polysorbate 20 (Tween) was combined with 1% of a DMSO solution of the inquired compound in a 96-well transparent flat bottom microtiter plate. Precipitation of the compound was measured at 650 nm with a Tecan Infinite 200 (Tecan Group Ltd, Mannedorf, Switzerland).

HepG2 cells = assay: WST-1 cytotoxicity assay; assay type: cell-based; conditions: up to a concentration of 30 μM; 48 hours
Method: The WST-1 assay (Roche Diagnostic GmbH, Mannheim, Germany) was used to determine the cell viability after treatment with the compounds. For this purpose, Hela and HepG2 cells were seeded each in 96-well plates at a density of 1×10^4 per well in DMEM with Phenolred and in presence of 10% FCS. After 24 hours the medium was changed. Fresh DMEM with 10% FCS was added and the cells were treated with the compounds for 48 hours. Cell viability was assessed according to the manufacturer's protocol using a microplate reader (infinity M200, Tecan Group Ltd., Crailsheim, Germany). All experiments were performed at least in triplicate.

[2] = In vitro drug metabolism in rat liver microsomes; assay type: in vitro ADME; conditions: 10 μM, 1 h incubation
Method: The incubation was performed in a shaking water bath at 37° C. The reaction was stopped by the addition of 500 μl ice-cold methanol at 0, 15, 30 and 60 min. The samples were centrifuged at 10 000 g for 5 min at 4° C. The supernatants were analysed and quantified by HPLC. Control samples were always performed to check the stability of the compounds in the reaction mixture. First control was without NADPH, which is needed for the enzymatic activity of the microsomes. Second control was with inactivated microsomes (microsomes that were incubated for 20 min at 90° C.). Third control was without test compounds (to determine the baseline). As positive control, a solution of 7-ethoxycoumarin (1 mM) was used. The final concentration of the control compound, under assay conditions, was again 10 μM. The amounts of the test compounds were quantified by an external calibration curve.

3T3-L1 fibroblasts = assay: Adipocyte differentiation of murine 3T3-L1 cells (Oil Red O staining); assay type: cell-based; conditions: 1c 1-10 μM; CIU 10 μM
Method: 3T3-L1 cells were subcultured in DMEM containing 10% newborn calf serum in a humidified atmosphere at 37° C., 5% CO2. […] Briefly, cells were seeded in 6-well plates (2.5×10^6/well). Differentiation was started at day 3 by addition of 1 μg/ml insulin, 0.25 dexamethasone and 0.5 mM isobutylmethylxanthine in DMEM supplemented with 10% fetal calf serum. At day 5 medium was replaced by medium containing only insulin for 2 more days. After this, cells were kept for lipid droplet accumulation in basal medium without additions until day 15.

[3] = system: human primary preadipocytes; assay: Adipocyte differentiation of human primary preadipocytes (Oil Red O staining); assay type: cell-based; conditions: 1c 1-10 μM; CIU 10 μM
Method: (§1) Human primary preadipocytes were obtained from stromal vascular fraction of subcutaneous fat from anonymous donors undergoing elective cosmetic surgery. Adipose tissue was digested by collagenase solution (0.3 U/ml in 1% BSA/PBS) for 45 min at 37° C. with constant shaking. Floating mature adipocytes were removed and the pellet containing the stromal vascular fraction was resuspended in erythrocyte lysis buffer. […] After 4 days the medium was changed to 3FC medium (QuickDiff medium without dexamethasone, IBMX and rosiglitazone). Adipocytes were cultured for additional 14 days before medium was changed to basal medium consisting of DMEM/Ham's F12 with biotin and panthotenate. This investigation conforms to the ethical principles outlined in the Declaration of Helsinki and was approved by the university ethics committee (Ethik-Kommission des Fachbereichs Medizin der Goethe-Universitat Frankfurt am Main). Total RNA was isolated using PeqGold RNAPure (Peqlab) according to manufacturer's instructions and was transcribed to cDNA using Maxima First Strand cDNA synthesis kit (Thermo Scientific), following manufacturer's instructions. Quantitative PCR was performed with iQ SYBR green Supermix (Bio-Rad) using a CFX96 (Bio-Rad) system. Expression was normalized to actin RNA.

[4] = system: PPARγ target genes (GLUT4, Adiponectin, FABP4, LPL); assay: qPCR of PPARγ target genes in differentiated 3T3-L1 cells; assay type: cell-based, murine; conditions: 1-10 μM; compared to rosiglitazone 2 μM
Method: 3T3-L1 cells were subcultured in DMEM containing 10% newborn calf serum in a humidified atmosphere at 37° C., 5% CO2. […] Briefly, cells were seeded in 6-well plates (2.5×10^6/well). Differentiation was started at day 3 by addition of 1 μg/ml insulin, 0.25 dexamethasone and 0.5 mM isobutylmethylxanthine in DMEM supplemented with 10% fetal calf serum. At day 5 medium was replaced by medium containing only insulin for 2 more days. After this, cells were kept for lipid droplet accumulation in basal medium without additions until day 15. […] Differentiation of 3T3-L1 cells was confirmed by Oil Red 0 staining. Cells were washed with PBS and subsequently fixed for 60 minutes with a formaldehyde solution (4% in PBS). After this, cells were rinsed with 60% isopropanol and incubated with Oil Red 0 solution (0.3%) for 120 minutes.
3T3-L1 cells or homogenized mouse tissues were lysed using TRIzol® reagent (Ambion, life technologies, Carlsbad, USA) and mRNA was isolated following the manufacturers protocol. DNA contaminations were digested using DNAse (DNase I, RNase-free Kit; Thermo Scientific, Waltham, USA) and mRNA concentrations were measured with a NANODROP2000 spectrophotometer (Thermo Scientific, Waltham, USA). […] All samples were measured in triplicates and were analyzed using the ΔΔCT method.

[5] = system: PPARγ target genes (GLUT4, Adiponectin, FABP4, LPL); assay: qPCR of PPARγ target genes in human primary adipocytes; assay type: cell-based
Method: as §1

PPARγ target gene CD36 = assay: CD36 expression in mouse liver (qPCR); assay type: in vivo; conditions: single p.o. 30 mg/kg bw, 8 h; compared to non-treated mice
Method: 3T3-L1 cells or homogenized mouse tissues were lysed using TRIzol® reagent (Ambion, life technologies, Carlsbad, USA) and mRNA was isolated following the manufacturers protocol. DNA contaminations were digested using DNAse (DNase I, RNase-free Kit; Thermo Scientific, Waltham, USA) and mRNA concentrations were measured with a NANODROP2000 spectrophotometer (Thermo Scientific, Waltham, USA). Subsequently, reverse transcription was performed using the High Capacity RNA-to-cDNA Kit (Applied Biosystems, Foster City, USA). PCR was performed using specific primers for GLUT-4, FABP-4, LPL, adiponectin and CD36 (shown under supporting informations) with a StepOnePlus Real-Time PCR System (Applied Biosystems, Foster City, USA). NoNo (3T3-L1) and β-Actin (mouse tissue) were used as reference genes. All samples were measured in triplicates and were analyzed using the ΔΔCT method.

hFFA1 = target: T4, hFFA1 (Homo sapiens, UniProt O14842); assay: IP1 accumulation in HEK293 cells stably expressing hFFA1; assay type: cell-based; conditions: read-out: pEC50 (IP1 accumulation) (converted)
T4 construct: expressed in transfected cells; host or cells: Flp-In T-REx 293 (HEK293), doxycycline-induced
Method: (§2) Stably transfected Flp-In™ T-REx™ 293 cells (Invitrogen) were cultured in Dulbecco's modified Eagles's medium (DMEM) containing 10% (v/v) fetal bovine serum (FBS), penicillin (100 U/mL), streptomycin ([…]), Hygromycin B (100 μg/mL) and Blasticidin (15 μg/mL) at 37° C. and 5% CO2. All experiments were carried out after inducing receptor expression with 1 μg/mL doxycycline for approximately 18 hours, according to manufacturer's instructions (Invitrogen).
(§3) Compound activity on the Gq coupled FFA1 receptor constructs was assessed by measuring intracellular level of inositolmonophosphate (IPI) using the HTRF®-IP-One kit (Cisbio International) according to manufacturer's instructions. Briefly, 10,000 receptor expressing cells were seeded into a 384 well microplate and incubated 20 minutes at 37° C. […] Data analysis and nonlinear regression curve fitting were carried out using the GraphPad Prism® software v5.04 (Graphpad Software).

mFFA1 = target: T5, mFFA1 (Mus musculus, UniProt Q76JU9); assay: IP1 accumulation in HEK293 cells stably expressing mFFA1; assay type: cell-based; conditions: read-out: pEC50 (IP1 accumulation) (converted)
T5 construct: expressed in transfected cells; host or cells: Flp-In T-REx 293 (HEK293), doxycycline-induced
Method: as §2, §3

[6] = after p.o. 30 mg/kg bw of 1c
Method: Blood was sampled 15 min, 30 min, 1 h, 2 h, 4 h and 8 h after test item application and only 8 h after vehicle application. Each drug treated mouse was sampled twice (0.25 and 0.5 h, 1 and 2 h, 4 and 8 h) via retro orbital puncture. Blood was collected in tubes containing lithium-heparin, stored on ice and subsequently centrifuged at 6000 rpm for 10 minutes at 4° C. (Heraeus biofuge fresco). The plasma was prepared within 45 min after sampling and kept at −20° C. until being assayed. For further kinetic and dynamic analysis the tissues (brain, liver, abdominal fat) were collected 30 min, 2h and 8 h post dose, after the second plasma sampling of each drug treated mouse. Tissue of the vehicle group was sampled only once, 8 h post dose. A volume of 40 μl acetonitrile containing the internal standard (300 ng/ml Diazepam) was added to 20 μl of mouse plasma sample, plasma calibration standard and plasma QC samples. Samples were vigorously shaken and centrifuged for 10 minutes at 6000 g and 20° C. The particle free supernatant was diluted 1:1 with water. An aliquot was transferred to 200 μl sampler vials and subsequently subjected to LC MS with an injection volume of 20 pl. The brain samples were homogenized in PBS (1+1, w/v) using the Precellys 24/Dual homogenizer. A volume of 20 μl of the brain homogenate was mixed (1+1 v/v/) with 20 μl mouse blank plasma. Then 80 μl acetonitrile containing the internal standard (300 ng/ml Diazepam) were added. Samples were vigorously shaken and centrifuged for 10 minutes at 6000 g and 20° C. The particle free supernatant was diluted 1:1 with water. An aliquot was transferred to 200 μl sampler vials and subsequently subjected to LC MS with an injection volume of 20 μl. Mass spectrometry was performed on a TSQ Quantum Discovery Max triple quadrupole mass spectrometer equipped with an electrospray (ESI) interface (Thermo Fisher Scientific, USA) connected to a PC running the standard software Xcalibur 2.0.7. […]

SHROB rats = system: SHROB rats
Method: SHROB were treated with RB394 (10 mg/kg/d, p.o.; […]) for 8-weeks.
Metabolic syndrome (MetS) is a cluster of symptoms including hypertension, hyperglycemia, hypertriglyceridemia and obesity. […] The inventors hypothesized that the development of a dual modulator (a drug that combines two pharmacophores) could treat more than one symptom of MetS and prevent renal injury. […] The inventors synthesized a novel dual sEH inhibitor-PPAR-γ agonist (sEHi/PPAR-γ), RB394 and investigated its efficacy in a rat model of MetS (see FIG. 21). Three groups of rats were utilized; Group 1: Wister Kyoto (WKY)+Vehicle (n=6); Group 2: Spontaneously Hypertensive Obese (SHROB)+Vehicle (n=5); Group 3: SHROB+RB394 (10 mg/kg/d p.o.; n=5). RB394 or vehicle treatments were administered for 56 days, blood pressure measured, and urine and kidney tissues collected at the end of treatment period. […] Kidney injury was assessed from albuminuria, and also from histopathological analysis of renal tubular cast formation, collagen formation and glomerular injury using Periodic Acid Schiff and Picro Sirius Red staining.
The Medical College of Wisconsin Institutional Animal Care and Use Committee according to the National Institutes of Health Guidelines for Care and Use of Laboratory Animals approved all animal studies. Eight to nine-week-old male Wistar-Kyoto (WKY), and SHROB were purchased from Charles River Laboratories (Wilmington, Mass., USA). Animals were housed in the Biomedical Resource Center at Medical College of Wisconsin with a 12 hour light-dark cycle and free access to tap water along with rat chow. WKY rats (n=6) were used as a control group as a comparison for disease progression. SHROB rats were divided into 2 groups. Group 1 received vehicle (n=5) and Group 2 received RB394 (10 mg/kg/d p.o.; n=5) for 8 weeks. Rats were weighed and systolic blood pressure was measured by tail-cuff plethysmography.
Intra-peritoneal glucose tolerance test was carried out during the 8-week treatment protocol in rats that were fasted overnight and injected with glucose (2 g/kg i.p.). Blood samples were collected from the tail vein before and at different time points after glucose injection. The tail vein blood glucose levels were measured using a glucometer LifeScan (Miltipas, Calif., USA).
Urinary biochemical analysis was done using commercially available ELISA kits; albumin and from Exocell (Philadelphia, Pa.). Rats were anesthetized using isoflorane and plasma collected from the artery. Triglyceride, cholesterol, protein and creatinine assay kits were from Cayman (Ann Arbor, Mich., USA), and free fatty acids from Zen-Bio Inc. (Research Triangle Park, N.C.). Blood glucose levels from the tail vein were measured using a glucometer.
The kidney was excised and immersion-fixed in 10% neutral buffered formalin and paraffin embedded. The embedded kidney and pancreas sections were cut into 4 μm slices for use in histology. Formalin-fixed paraffin-embedded tissue slices were deparaffinized, re-hydrated, and kidney tissue slices were stained with Periodic Acid-Schiff (PAS) and Masson's Trichorme. Glomerulosclerosis and mesangial matrix expansion were blindly scored from kidney sections stained with PAS staining using the following numeric scale: 0=no damage; +1=very mild; +2=mild; +3=moderate and +4=severe. Two observers in a blinded fashion conducted histological analysis at a magnification of ×200 using Nikon NIS Elements Software (Nikon Instruments Inc., Melville, N.Y., USA). Proteinaceous cast in the kidney was also determined in PAS stained kidney sections at magnification of ×200 using Nikon NIS Elements Software. The percentage area positive for proteinaceous cast was calculated from the mean of eight cortical and five medullary fields for each animal. Fibrosis in the kidney was determined in kidney sections stained with Masson's Trichorme at a magnification of ×200.

[7] = SHROB + RB394 10 mg/kg/d p.o., 8 weeks
[8] = SHROB + RB394 10 mg/kg/d p.o., 56 days

T4 sequence (O14842 whole entry): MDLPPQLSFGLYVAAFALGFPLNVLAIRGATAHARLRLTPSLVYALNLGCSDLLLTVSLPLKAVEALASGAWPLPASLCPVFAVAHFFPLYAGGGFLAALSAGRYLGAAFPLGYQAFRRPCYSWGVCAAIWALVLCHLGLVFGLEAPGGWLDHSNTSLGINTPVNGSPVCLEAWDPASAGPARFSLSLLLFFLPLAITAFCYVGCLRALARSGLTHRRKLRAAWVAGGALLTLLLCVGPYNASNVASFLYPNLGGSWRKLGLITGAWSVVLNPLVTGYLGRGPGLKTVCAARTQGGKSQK
T5 sequence (Q76JU9 whole entry): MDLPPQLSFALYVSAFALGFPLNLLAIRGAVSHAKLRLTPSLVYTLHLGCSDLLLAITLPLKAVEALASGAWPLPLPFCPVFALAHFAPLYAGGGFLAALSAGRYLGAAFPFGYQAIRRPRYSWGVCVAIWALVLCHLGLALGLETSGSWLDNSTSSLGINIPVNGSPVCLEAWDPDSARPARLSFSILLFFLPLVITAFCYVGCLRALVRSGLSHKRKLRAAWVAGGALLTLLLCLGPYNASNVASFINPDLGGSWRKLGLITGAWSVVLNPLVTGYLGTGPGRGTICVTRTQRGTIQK
T3 sequence (Q03181 211-439): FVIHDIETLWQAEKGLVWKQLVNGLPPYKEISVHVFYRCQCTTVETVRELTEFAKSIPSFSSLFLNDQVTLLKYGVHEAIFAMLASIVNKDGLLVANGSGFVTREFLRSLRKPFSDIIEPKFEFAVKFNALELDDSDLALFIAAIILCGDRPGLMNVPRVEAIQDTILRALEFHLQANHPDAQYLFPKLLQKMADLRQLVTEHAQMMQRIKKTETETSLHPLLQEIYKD
T2 sequence (Q07869 239-466): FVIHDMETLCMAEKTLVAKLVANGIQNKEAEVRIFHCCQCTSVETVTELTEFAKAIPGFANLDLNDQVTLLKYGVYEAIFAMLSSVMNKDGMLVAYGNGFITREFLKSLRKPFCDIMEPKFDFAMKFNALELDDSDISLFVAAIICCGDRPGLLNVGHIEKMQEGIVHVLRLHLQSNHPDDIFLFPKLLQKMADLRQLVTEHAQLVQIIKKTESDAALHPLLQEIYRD

CCC(Cc1ccc(C(=O)NCc2ccccc2C(F)(F)F)cc1)C(=O)O (stereo not shown) [Compound 1c, 2-Ethyl 3-[4-(N-((2-trifluoromethyl)benzyl)benzamide)]propionic acid]
IC50 (recombinant human sEH): 1.6 ± 0.2 µM
EC50 PPARα (PPARα; i.a. = inactive): i.a.
EC50 PPARδ (PPARδ): i.a.
solubility [1]: 100 µM (≈ 37.9 µg/mL)
cell viability of HepG2 cells (WST-1) (HepG2 cells): did not impair cell viability
compound remaining intact after 1 h [2]: 92%
adipocyte differentiation (Oil-Red O) (3T3-L1 fibroblasts): dose-dependent effect
adipocyte differentiation (Oil-Red O) [3]: dose dependent (1-10 μM) effect
expression of PPARγ target genes (GLUT4, Adiponectin, FABP4, LPL) [4]: dose-dependently activated expression of all target genes analysed
upregulation of GLUT4 expression ([5]; 1c 10 μM): comparable to the rosiglitazone (2 μM) control
upregulation of Adiponectin, FABP4 and LPL ([5]; 1c stimulation): only minor effects
increase of CD36 expression in liver (PPARγ target gene CD36): at least 2 fold
EC50 (hFFA1): 8.32 µM
EC50 (mFFA1): 4.9 µM
AUC0→∞ [6]: 15847 ng·h/mL
tmax [6]: 30 min

CCC(Cc1ccc(C(=O)NCc2ccc(OC)cc2C(F)(F)F)cc1)C(=O)O (stereo not shown) [Compound 14c, 2-Ethyl 3-14-(N-(4-methoxy(2-trifluoromethyl)benzyl)benzamide)1 propionic acid]
PPARα activation @10 μM (PPARα; at 10 μM, compared to GW7647 1 μM): 29%
EC50 PPARδ (PPARδ): n.t. i.a. i.a. n.t.
solubility [1]: 500 µM (≈ 205 µg/mL)
cell viability of HepG2 cells (WST-1) (HepG2 cells): did not impair cell viability
compound remaining intact after 1 h [2]: 96%
EC50 (hFFA1): 14.1 µM
EC50 (mFFA1): 23.4 µM
body weight gained more than vehicle treated SHROB (SHROB rats; 8 weeks): approximately 40 g
systolic blood pressure lower than vehicle treated SHROB (SHROB rats; 8 weeks): approximately 44 mmHg
Body Weight (SHROB rats; [7]): 600 ± 8 g
Fasting Blood Glucose (SHROB rats; [7]): 83 ± 7 mg/dL
Free fatty Acid (SHROB rats; [7]): ^#322 ± 24 μM
Serum Cholesterol (SHROB rats; [7]): #4.0 ± 0.7 mM
Triglyceride (SHROB rats; [7]): ^#133 ± 18 mg/DL
albuminuria (SHROB rats; [8]): 59 ± 11 mg/day
reduction of glomerular injury (SHROB rats; [8]): 45%
reduction of renal cast and collagen formation (SHROB rats; [8]): 40-50%
reduction of renal inflammation (infiltrating immune cells in the kidney) (SHROB rats; [8]): 20%
